The supplement of paper PMC6045584
± gives the standard deviation of the averaged measurements.

Key:
[1] = compound: CS(=O)(=O)c1ccc(C(=O)Nc2ccc(Cl)c(-c3ccccn3)c2)c(Cl)c1 [VISMODEGIB]; assay: area under dose-response curve of surviving fraction (unscaled, Aref=0) (surviving fraction x log10(nM)); higher = more resistant; conditions: exposure time: 5 days; dose range 0.5-1000 nM
Method in brief: (§1)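 Tumour cell lines in 384-well plates were exposed to eight inhibitor concentrations, from 0.5 to 1000 nM, for five days, and viability was read by CellTiter-Glo luminescence in three screens per line. Signals were normalised to DMSO-only wells, and 3-parameter logistic regression in the drc R package fitted dose-response survival curves to the surviving fractions. Area under the curve is given as the unscaled activity area. That area is taken over log10 dose with Aref = 0.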

[2] = compound: Nc1ncn([C@H]2C[C@H](O)[C@@H](CO)O2)c(=O)n1 [DECITABINE]; assay: as above; conditions: exposure time: 5 days; dose range 0.5-1000 nM
Method in brief: as §1

[3] = compound: O=c1[nH]cc(F)c(=O)[nH]1 [FLUOROURACIL]; assay: as above; conditions: exposure time: 5 days; dose range 0.5-1000 nM
Method in brief: as §1

[4] = compound: CN(C)CC[C@H](CSc1ccccc1)Nc1ccc(S(=O)(=O)NC(=O)c2ccc(N3CCN(Cc4ccccc4-c4ccc(Cl)cc4)CC3)cc2)cc1[N+](=O)[O-] [ABT-737]; assay: as above; conditions: exposure time: 5 days; dose range 0.5-1000 nM
Method in brief: as §1

[5] = compound: CC[C@@H](C(=O)[C@@H](C)[C@@H](O)[C@H](C)[C@@H]1O[C@@H]([C@@H](CC)C(=O)O)CC[C@@H]1C)[C@H]1O[C@]2(C=C[C@@H](O)[C@]3(CC[C@@](C)([C@H]4CC[C@](O)(CC)[C@H](C)O4)O3)O2)[C@H](C)C[C@@H]1C [SALINOMYCIN]; assay: as above; conditions: exposure time: 5 days; dose range 0.5-1000 nM
Method in brief: as §1

[6] = compound: CCN(CC)CCCCNc1ncc2cc(-c3cc(OC)cc(OC)c3)c(NC(=O)NC(C)(C)C)nc2n1; assay: as above; conditions: exposure time: 5 days; dose range 0.5-1000 nM
Method in brief: as §1

[7] = compound: CN1CC[C@H](c2c(O)cc(O)c3c(=O)cc(-c4ccccc4Cl)oc23)[C@H](O)C1 [FLAVOPIRIDOL]; assay: as above; conditions: exposure time: 5 days; dose range 0.5-1000 nM
Method in brief: as §1

[8] = compound: Oc1ccc(/C=C/c2cc(O)cc(O)c2)cc1 [RESVERATROL]; assay: as above; conditions: exposure time: 5 days; dose range 0.5-1000 nM
Method in brief: as §1

[9] = compound: COc1cc2c(cc1O)CC[C@@H]1[C@@H]2CC[C@]2(C)[C@@H](O)CC[C@@H]12 [2-METHOXYESTRADIOL]; assay: as above; conditions: exposure time: 5 days; dose range 0.5-1000 nM
Method in brief: as §1

[10] = compound: COc1cccc2c1C(=O)c1c(O)c3c(c(O)c1C2=O)C[C@@](O)(C(=O)CO)C[C@@H]3O[C@H]1C[C@H](N)[C@H](O)[C@H](C)O1 [DOXORUBICIN]; assay: as above; conditions: exposure time: 5 days; dose range 0.5-1000 nM
Method in brief: as §1

[11] = compound: C=CCNC1=C2C[C@@H](C)C[C@H](OC)[C@H](O)[C@@H](C)/C=C(\C)[C@H](OC(N)=O)[C@@H](OC)/C=C\C=C(/C)C(=O)NC(=CC1=O)C2=O [17-AAG]; assay: as above; conditions: exposure time: 5 days; dose range 0.5-1000 nM
Method in brief: as §1

[12] = compound: T1, COc1ccc(C2=N[C@@H](c3ccc(Cl)cc3)[C@@H](c3ccc(Cl)cc3)N2C(=O)N2CCNC(=O)C2)c(OC(C)C)c1 [NUTLIN3]; assay: as above; conditions: exposure time: 5 days; dose range 0.5-1000 nM
Method in brief: as §1

[13] = compound: T1, NUTLIN3; assay: surviving fraction relative to DMSO-only wells; higher = less growth inhibition; conditions: exposure time: 5 days
Method in brief: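 Inhibitors at 0.5, 1, 5, 10, 50, 100, 500 and 1000 nM were applied continuously for five days to tumour cell lines seeded in log phase at 250–500 cells per well in 384-well plates 24 hours earlier. Viability was measured by CellTiter-Glo luminescence and expressed as surviving fraction relative to the median of DMSO-only wells. Luminescence was taken after 10 minutes at room temperature.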

## SNU475 LIVER
[1]
  area under dose-response curve: 3.06
[2]
  area under dose-response curve: 3.4
[3]
  area under dose-response curve: 3.03
[4]
  area under dose-response curve: 3.39
[5]
  area under dose-response curve: 2.58
[6]
  area under dose-response curve: 3.01
[7]
  area under dose-response curve: 2.33
[8]
  area under dose-response curve: 3.3
[9]
  area under dose-response curve: 3.26
[10]
  area under dose-response curve: 2.22
[11]
  area under dose-response curve: 1.66
[12]
  area under dose-response curve: 3.32
[13]; 0.5 nM
  surviving fraction: 1.02 ± 0.066
[13]; 1 nM
  surviving fraction: 0.981 ± 0.017
[13]; 5 nM
  surviving fraction: 0.988 ± 0.045
[13]; 10 nM
  surviving fraction: 0.984 ± 0.032
[13]; 50 nM
  surviving fraction: 1 ± 0.028
[13]; 100 nM
  surviving fraction: 1.03 ± 0.071
[13]; 500 nM
  surviving fraction: 1.021 ± 0.009
[13]; 1000 nM
  surviving fraction: 1 ± 0.02

## SYO1 SYNOVIAL
[1]
  area under dose-response curve: 3
[2]
  area under dose-response curve: 2.46
[3]
  area under dose-response curve: 2.82
[4]
  area under dose-response curve: 3
[5]
  area under dose-response curve: 2.04
[6]
  area under dose-response curve: 2.51
[7]
  area under dose-response curve: 1.9
[8]
  area under dose-response curve: 3.23
[9]
  area under dose-response curve: 2.75
[10]
  area under dose-response curve: 0.851
[11]
  area under dose-response curve: 1.74
[12]
  area under dose-response curve: 2.9
[13]; 0.5 nM
  surviving fraction: 1.01 ± 0.039
[13]; 1 nM
  surviving fraction: 0.997 ± 0.038
[13]; 5 nM
  surviving fraction: 0.993 ± 0.019
[13]; 10 nM
  surviving fraction: 0.979 ± 0.036
[13]; 50 nM
  surviving fraction: 0.977 ± 0.042
[13]; 100 nM
  surviving fraction: 0.934 ± 0.048
[13]; 500 nM
  surviving fraction: 0.588 ± 0.026
[13]; 1000 nM
  surviving fraction: 0.468 ± 0.012

## T47D BREAST
[1]
  area under dose-response curve: 3.3
[2]
  area under dose-response curve: 3.53
[3]
  area under dose-response curve: 3.16
[4]
  area under dose-response curve: 3.61
[5]
  area under dose-response curve: 3.3
[6]
  area under dose-response curve: 3.36
[7]
  area under dose-response curve: 2.51
[8]
  area under dose-response curve: 3.51
[9]
  area under dose-response curve: 3.15
[10]
  area under dose-response curve: 2.13
[11]
  area under dose-response curve: 2.74
[12]
  area under dose-response curve: 3.35
[13]; 0.5 nM
  surviving fraction: 1.01 ± 0.029
[13]; 1 nM
  surviving fraction: 0.993 ± 0.019
[13]; 5 nM
  surviving fraction: 0.992 ± 0.043
[13]; 10 nM
  surviving fraction: 1.01 ± 0.051
[13]; 50 nM
  surviving fraction: 1.07 ± 0.029
[13]; 100 nM
  surviving fraction: 1.08 ± 0.033
[13]; 500 nM
  surviving fraction: 0.965 ± 0.075
[13]; 1000 nM
  surviving fraction: 0.937 ± 0.024

## U2OS BONE
[1]
  area under dose-response curve: 3.48
[2]
  area under dose-response curve: 3.01
[3]
  area under dose-response curve: 3.18
[4]
  area under dose-response curve: 3.49
[5]
  area under dose-response curve: 3.16
[6]
  area under dose-response curve: 3
[7]
  area under dose-response curve: 2.2
[8]
  area under dose-response curve: 3.48
[9]
  area under dose-response curve: 3.08
[10]
  area under dose-response curve: 1.98
[11]
  area under dose-response curve: 2.13
[12]
  area under dose-response curve: 3.28
[13]; 0.5 nM
  surviving fraction: 1.02 ± 0.037
[13]; 1 nM
  surviving fraction: 1.05 ± 0.037
[13]; 5 nM
  surviving fraction: 1.04 ± 0.039
[13]; 10 nM
  surviving fraction: 1.02 ± 0.049
[13]; 50 nM
  surviving fraction: 1.04 ± 0.023
[13]; 100 nM
  surviving fraction: 1.04 ± 0.028
[13]; 500 nM
  surviving fraction: 0.974 ± 0.022
[13]; 1000 nM
  surviving fraction: 0.897 ± 0.036
